# From the supplement of paper PMC10307832
# Key:
# Assay in all cases: relative viability (nuclei count vs DMSO), 5 days (fraction); higher = more cells survive
# [1] = compound: C=CCc1cccc(/C=N/NC(=O)CN2CCN(Cc3ccccc3)CC2)c1O [PAC-1] + CC1(C)CCC(c2ccc(Cl)cc2)=C(CN2CCN(c3ccc(C(=O)NS(=O)(=O)c4ccc(N[C@H](CCN5CCOCC5)CSc5ccccc5)c(S(=O)(=O)C(F)(F)F)c4)cc3)CC2)C1 [Navitoclax] (partner 0.5 µM)
# Procedure, shortened: (§1)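 Medians of duplicate plates are given as relative viability. That measure is the nuclei count in treated wells divided by the count in vehicle wells. Counts were taken on 4× images of lung cancer cell lines in 1536-well plates, 5 days after pin-tool dosing the day after seeding with one drug alone or a fixed anchor-drug dose plus five library-drug doses (not always all listed) in √10 steps.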
# [2] = compound: C=CCc1cccc(/C=N/NC(=O)CN2CCN(Cc3ccccc3)CC2)c1O [PAC-1] + Nc1ncn([C@H]2C[C@H](O)[C@@H](CO)O2)c(=O)n1 [Decitabine] (partner 2 µM)
# Procedure, shortened: as §1
# [3] = compound: C=CC(=O)N1CCC[C@@H](n2nc(-c3ccc(Oc4ccccc4)cc3)c3c(N)ncnc32)C1 [Ibrutinib] + Cc1cc(Nc2cc(N3CCN(C)CC3)nc(Sc3ccc(NC(=O)C4CC4)cc3)n2)n[nH]1 [Tozasertib] (partner 0.1 µM)
# Procedure, shortened: as §1
# [4] = compound: C=CCc1cccc(/C=N/NC(=O)CN2CCN(Cc3ccccc3)CC2)c1O [PAC-1] + C[C@]1(O)C[C@@H](c2nc(-c3ccc4ccc(-c5ccccc5)nc4c3)c3c(N)nccn32)C1 [Linsitinib] (partner 1 µM)
# Procedure, shortened: as §1
Cell Line,relative viability ([1]; first compound 0.02 µM),relative viability ([1]; first compound 0.06325 µM),relative viability ([1]; first compound 0.2 µM),relative viability ([1]; first compound 2 µM),relative viability ([2]; first compound 0.02 µM),relative viability ([2]; first compound 0.06325 µM),relative viability ([2]; first compound 0.2 µM),relative viability ([2]; first compound 2 µM),relative viability ([3]; first compound 0.005 µM),relative viability ([3]; first compound 0.01581 µM),relative viability ([3]; first compound 0.05 µM),relative viability ([3]; first compound 0.1581 µM),relative viability ([3]; first compound 0.5 µM),relative viability ([4]; first compound 0.02 µM),relative viability ([4]; first compound 0.06325 µM),relative viability ([4]; first compound 0.2 µM),relative viability ([4]; first compound 2 µM)
HOP-62,1.04,1.02,0.58,0.988,0.255,0.213,0.177,0.236,0.447,0.408,0.467,0.403,0.473,1.01,0.927,0.977,0.939
IA-LM,0.78,0.92,0.632,0.657,,,,,,,,,,0.771,0.716,0.639,0.58
LC-2-ad,0.464,0.427,0.35,0.331,0.827,0.75,0.779,0.672,0.497,0.413,0.388,0.449,0.382,0.849,0.825,0.782,0.78
LCLC-97TM1,,0.395,0.307,0.62,0.229,0.215,,0.261,0.601,0.426,0.216,0.241,0.224,,0.196,0.196,0.165
LCLC-103H,,,,,0.725,0.784,0.71,0.736,0.493,0.495,0.531,0.527,0.439,1.04,1.13,1.14,0.98
LK-2,0.816,0.805,0.88,0.845,0.328,0.284,0.264,0.335,,0.165,0.185,0.168,0.157,0.49,0.807,0.537,0.621
LOU-NH91,0.651,0.718,0.672,0.673,0.813,0.813,0.811,0.796,0.699,0.582,0.581,0.648,0.488,0.925,0.964,0.906,0.915
LU99A,0.939,0.836,0.717,0.801,0.826,0.773,0.801,0.881,0.264,0.279,0.285,0.258,0.278,0.562,0.514,0.518,0.489
LXF-289,0.944,0.948,0.932,0.927,0.405,0.39,0.388,0.377,0.22,0.192,0.164,0.248,0.197,0.972,0.992,0.946,0.909
NCI-H23,0.569,0.891,0.793,0.881,0.322,0.303,0.294,0.284,0.34,0.361,0.455,0.335,0.382,0.534,0.574,0.564,0.505
NCI-H322M,1.23,1.27,1.28,1.23,0.691,0.711,0.689,0.751,0.426,0.459,0.415,0.474,0.354,0.907,0.889,0.817,0.928
NCI-H358,,,,,0.229,0.219,0.209,0.16,0.103,,0.0879,0.12,0.0917,0.657,0.786,0.709,0.506
NCI-H522,,,,,0.607,0.641,0.614,0.697,0.503,0.521,0.476,0.55,0.46,,,,
NCI-H650,,,,,0.307,0.331,0.298,0.45,0.783,0.672,0.758,0.808,0.782,0.887,0.912,0.761,0.676
NCI-H661,,,,,0.526,0.53,0.439,0.506,0.353,0.372,0.384,0.348,0.389,0.432,0.561,0.52,0.532
NCI-H1299,1.04,1.03,1.06,1.04,,,,,,,,,,0.947,0.963,0.953,0.96
NCI-H1563,,,,,,,,,,,,,,1.15,1.32,1.28,1.19
NCI-H1623,,,,,,,,,0.44,0.407,0.301,0.451,0.201,,,,
NCI-H1648,,,,,0.415,0.577,0.452,0.551,0.549,0.368,0.467,0.537,0.358,,,,
NCI-H1650,1.18,1.15,1.22,1.04,0.447,0.441,0.344,0.371,0.329,0.36,0.4,0.394,0.302,,,,
NCI-H1703,1.4,0.998,0.958,0.959,,,,,,,,,,0.646,0.423,0.765,0.932
NCI-H1792,0.613,0.563,0.621,0.681,0.539,0.521,0.482,0.483,,,,,,0.648,0.602,0.534,0.579
NCI-H2170,0.637,0.622,0.569,0.461,0.477,0.493,0.42,0.453,0.676,0.748,0.519,0.63,0.23,,,,
NCI-H2228,0.98,1.12,0.893,0.785,,,,,0.282,,0.253,0.307,0.187,0.575,0.787,0.603,0.694
NCI-H2342,,,,,0.791,0.705,0.704,0.733,0.499,0.493,0.577,0.53,0.396,,,,
SW 900,,,,,,0.393,0.478,0.378,,,0.663,0.627,0.59,,,,
